This is an account of results in ChEMBL document CHEMBL3351610, “Synthesis and biological evaluation of substituted 4-(thiophen-2-ylmethyl)-2H-phthalazin-1-ones as potent PARP-1 inhibitors” (Bioorg Med Chem Lett, 2014).

This assay has as its target Poly [ADP-ribose] polymerase 1 (Homo sapiens, UniProt P09874). Kind of assay: Inhibition of human PARP1.

Molecules are shown by their SMILES. pIC50: −log10 of the molar value.

As usually defined, the pIC50 is the negative decadic logarithm of the IC50, by convention in mol/L. Low values mean a high IC50, high ones a low IC50.

Chain of Poly [ADP-ribose] polymerase 1 (P09874 whole entry): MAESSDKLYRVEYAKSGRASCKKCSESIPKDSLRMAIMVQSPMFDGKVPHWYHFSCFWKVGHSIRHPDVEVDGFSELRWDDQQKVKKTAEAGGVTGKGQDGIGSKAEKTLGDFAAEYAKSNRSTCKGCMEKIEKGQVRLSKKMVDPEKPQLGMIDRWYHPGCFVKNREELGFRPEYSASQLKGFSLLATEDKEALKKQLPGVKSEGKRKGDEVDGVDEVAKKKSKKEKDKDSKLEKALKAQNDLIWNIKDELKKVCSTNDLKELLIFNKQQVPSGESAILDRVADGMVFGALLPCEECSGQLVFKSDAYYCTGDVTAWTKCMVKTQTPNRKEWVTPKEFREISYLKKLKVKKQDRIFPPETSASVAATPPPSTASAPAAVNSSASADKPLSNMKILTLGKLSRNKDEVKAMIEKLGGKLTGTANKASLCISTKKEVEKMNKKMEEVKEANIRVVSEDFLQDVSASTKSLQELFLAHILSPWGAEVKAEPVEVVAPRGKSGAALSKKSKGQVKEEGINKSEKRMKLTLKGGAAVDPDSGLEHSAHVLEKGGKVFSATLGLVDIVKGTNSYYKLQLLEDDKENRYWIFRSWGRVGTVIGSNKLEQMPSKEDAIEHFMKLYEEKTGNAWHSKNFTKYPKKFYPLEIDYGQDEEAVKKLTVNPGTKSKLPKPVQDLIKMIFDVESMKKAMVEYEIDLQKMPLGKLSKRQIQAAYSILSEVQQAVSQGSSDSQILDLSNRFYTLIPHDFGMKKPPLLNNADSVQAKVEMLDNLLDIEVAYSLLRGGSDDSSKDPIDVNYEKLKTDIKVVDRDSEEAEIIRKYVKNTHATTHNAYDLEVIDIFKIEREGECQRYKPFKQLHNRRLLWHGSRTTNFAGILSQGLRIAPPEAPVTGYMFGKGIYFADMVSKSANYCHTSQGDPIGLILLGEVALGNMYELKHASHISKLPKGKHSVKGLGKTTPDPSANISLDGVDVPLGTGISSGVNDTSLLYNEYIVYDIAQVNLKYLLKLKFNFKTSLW

For `O=C(c1ccncc1)N1CCN(C(=O)c2csc(Cc3n[nH]c(=O)c4ccccc34)c2)CC1`, the pIC50 was 6.97.
For the molecule `O=C(c1csc(Cc2n[nH]c(=O)c3ccccc23)c1)N1CCN(C(=O)c2ccccn2)CC1`, the negative-log IC50 (pIC50) is 7.34. This pIC50 lies 0.37 log units higher than the previous one.
The molecule `O=C(c1csc(Cc2n[nH]c(=O)c3ccccc23)c1)N1CCN(C(=O)C2CC2)CC1` had a pIC50 of 6.98.
The figure for `N#Cc1ccc(C(=O)N2CCN(C(=O)c3csc(Cc4n[nH]c(=O)c5ccccc45)c3)CC2)cc1` is 7.07; for `O=C(c1ccc(Br)cc1)N1CCN(C(=O)c2csc(Cc3n[nH]c(=O)c4ccccc34)c2)CC1` it is 7.14.
As to `O=C(c1csc(Cc2n[nH]c(=O)c3ccccc23)c1)N1CCN(C(=O)c2ccc3c(c2)OCO3)CC1`, the negative-log IC50 (pIC50) was 7.40. Against the preceding molecule, the pIC50 is 0.26 log units higher.
`CCC(=O)N1CCN(C(=O)c2csc(Cc3n[nH]c(=O)c4ccccc34)c2)CC1` showed a pIC50 of 7.10.
The molecule `COc1ccc(CC(=O)N2CCN(C(=O)c3csc(Cc4n[nH]c(=O)c5ccccc45)c3)CC2)cc1` had a negative logarithm of the IC50 (pIC50) of 7.02.
To `CC(=O)N1CCN(C(=O)c2csc(Cc3n[nH]c(=O)c4ccccc34)c2)CC1` belongs 6.91; to `O=C(c1csc(Cc2n[nH]c(=O)c3ccccc23)c1)N1CCN(C(=O)c2cccs2)CC1`, 7.96.
